Structures are written as SMILES.

Holding throughout (experiment): HTS ATP-utilizing enzyme assay, off-chip mobility-shift (Caliper HTS 250)
Assay type in all cases: biochemical
What all share (conditions): test compound 10 μM, kinase listed = active (greater than six-sigma from the mean activity of inactive compounds)

The target of one experiment is T1, NEK2 (Homo sapiens, UniProt P51955).
T1 sequence (P51955 1-445): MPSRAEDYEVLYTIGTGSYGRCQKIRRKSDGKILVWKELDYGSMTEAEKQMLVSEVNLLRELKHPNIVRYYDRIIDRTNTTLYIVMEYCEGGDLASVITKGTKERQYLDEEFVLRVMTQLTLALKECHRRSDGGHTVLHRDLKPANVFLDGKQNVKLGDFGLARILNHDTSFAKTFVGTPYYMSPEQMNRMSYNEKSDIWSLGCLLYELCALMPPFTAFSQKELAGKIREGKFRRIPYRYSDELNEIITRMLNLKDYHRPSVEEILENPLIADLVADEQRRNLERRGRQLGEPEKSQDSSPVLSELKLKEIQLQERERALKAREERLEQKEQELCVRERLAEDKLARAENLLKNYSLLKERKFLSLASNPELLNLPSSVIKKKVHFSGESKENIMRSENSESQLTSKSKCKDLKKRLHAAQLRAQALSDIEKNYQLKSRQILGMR
The text has this:
(§1) The following procedures describe the reagent and plate preparation for a HTS of an ATP-utilizing enzyme, such as a protein kinase, run in an off-chip mobility-shift assay format. The following provides an HTS protocol for running a protein kinase HTS screen on a Caliper HTS 250 microfluidics system. The following parameters are dependent on the protein kinase used and can be determined by one skilled in the art as part of a typical assay development process. For example, the peptide substrate used can be identified from the current literature, by screening a peptide library of potential protein kinase substrates, or by other applicable means accepted in the field.
(§2) The following table provides typical screen assay parameters appropriate for a Caliper HTS 250 microfluidics system.
(§3) The reagents and buffers listed in the following table are generally applicable for developing and running an HTS screen on a human protein kinase using the Caliper HTS 250 system.
(§4) The following reagents were prepared using the previously described buffers.
(§5) A 2× Master Buffer solution was prepared by combining 200 mL of 1 M HEPES, pH 7.5, 2 mL of 10% Triton X-100, 20 mL of 10% BSA, and 778 mL of H2O.
(§6) A 2.5× Substrate Buffer solution was prepared by combining 177.408 mL of 2× Master Buffer, 0.887 mL of 1 mM peptide-X, and 176.521 mL of H2O.
(§7) A 1.55× Termination Buffer solution was prepared by combining 762.05 mL of 2× Master Buffer, 95.1 mL of 0.5 M EDTA, and 666.94 mL of H2O.
(§8) A TCB Buffer solution was prepared by combining 125 mL of 2× Master Buffer, 10 mL of 0.5 M EDTA, 6.25 mL of 4% coating reagent, 1.01 mL of 100% DMSO, and 107.74 mL H2O.
(§9) A Dye Trough solution was prepared by combining 0.5 μL of peptide-X, and 2,999.5 μL of IX Master Buffer.
(§10) A 1.06× Assay Buffer solution was prepared by combining 205.15 mL of 2× Master Buffer, and 181.92 mL of H2O.
(§11) Assays to determine the kinase inhibitory activity of compounds of the present disclosure were performed using a Caliper HTS 250 microfluidics device, Greiner U-bottom assay plates, a Multidrop for transfer of reagents, and Biomek FX (AMNCBM03) software. Initially, 2.4 μL of a 1 mM solution of a test compound in 100% DMSO was added to a well of the Greiner U-bottom plate. A single Greiner U-bottom plate having 24×16 wells could include multiple test compounds. Next, […] of 1.06× Assay Buffer was added to each well of the assay plate. Using the Biomek FX, 10 μL of 0.5 M EDTA was added by the span-8 to wells, indicated as 100% Control and 2.4 μL of 100% DMSO was added by the span-8 to wells, indicated as 0% Control. Using the Multidrop, 10 μL of 2.5× Enzyme Buffer, followed by 10 μL of 2.5× Substrate Buffer was added to each well of the assay plate. The total reaction volume in each well was 25 μL, and the concentration of the test compound was 10 μM. The assay plate was incubated for 2.5 hrs at 20° C. to 22° C. After the incubation period, using the Multidrop, 45 μL of 1.55× Termination Buffer was added to each well of the assay plate to stop the reaction. The inhibition of the ATP-utilizing enzyme, such as a particular protein kinase, was determined by measuring the ratio of the peptide substrate to phosphorylated product for each well of the assay plate using the Caliper HTS 250 system.
(§12) The use of six-sigma statistical limits represents a conservative method for declaring potential hits among targets. The six-sigma activity, as well as the mean population activity, can be different for each target enzyme. This method has an expected false positive rate, from an in-control measurement process, of one in one million.

The target in another experiment is T2, PRAK (Homo sapiens, UniProt Q8IW41).
T2 sequence (Q8IW41 1-473): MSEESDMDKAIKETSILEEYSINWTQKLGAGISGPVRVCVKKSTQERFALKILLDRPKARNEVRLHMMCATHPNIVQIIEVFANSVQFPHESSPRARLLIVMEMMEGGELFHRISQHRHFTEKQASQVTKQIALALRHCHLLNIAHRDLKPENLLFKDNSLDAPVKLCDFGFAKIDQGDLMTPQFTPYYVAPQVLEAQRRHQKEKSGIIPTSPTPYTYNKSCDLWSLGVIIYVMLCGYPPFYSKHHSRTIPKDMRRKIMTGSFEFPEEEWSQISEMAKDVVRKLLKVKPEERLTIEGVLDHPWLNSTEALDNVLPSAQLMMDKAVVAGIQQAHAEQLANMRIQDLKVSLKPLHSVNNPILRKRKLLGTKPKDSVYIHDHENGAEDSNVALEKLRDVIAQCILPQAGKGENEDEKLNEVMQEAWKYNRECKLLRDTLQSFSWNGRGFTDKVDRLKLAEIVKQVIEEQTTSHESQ
From the text: as §1, §2, §3, §4, §5, §6, §7, §8, §9, §10, §11, §12

The target in another experiment is MAPKAPK2 (Homo sapiens, UniProt P49137). Put shortly: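 Single-point screen of test compound at 10 μM against MAPKAPK2 with peptide substrate in HEPES pH 7.5 buffer (Triton X-100, BSA), 2.5 h at 20-22 °C. Substrate-to-phosphopeptide ratio was read by off-chip microfluidic mobility shift; EDTA and DMSO wells defined 100% and 0% controls, hits by six-sigma limits.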
Chain of MAPKAPK2 (P49137 whole entry): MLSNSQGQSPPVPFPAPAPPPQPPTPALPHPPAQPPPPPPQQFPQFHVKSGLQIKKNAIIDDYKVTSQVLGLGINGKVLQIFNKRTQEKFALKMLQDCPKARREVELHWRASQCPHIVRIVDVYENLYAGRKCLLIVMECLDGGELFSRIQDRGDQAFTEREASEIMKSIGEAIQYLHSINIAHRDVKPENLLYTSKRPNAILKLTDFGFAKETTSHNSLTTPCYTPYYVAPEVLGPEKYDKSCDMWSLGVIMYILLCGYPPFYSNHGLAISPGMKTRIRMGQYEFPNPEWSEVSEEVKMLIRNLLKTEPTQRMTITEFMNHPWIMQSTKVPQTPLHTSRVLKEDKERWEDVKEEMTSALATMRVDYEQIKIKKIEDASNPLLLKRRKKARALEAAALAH

As to `CCc1ccccc1-c1ccc2nccc(Nc3ccc(N4CCN(C)CC4)cc3)c2c1` [6-(2-ethylphenyl)-N-(4-(4-methylpiperazin-1-yl)phenyl)quinolin-4-amine], the Activity entry is “NEK2” on NEK2, “PRAK” on PRAK and “MAPKAPK2” on MAPKAPK2.

On to `COc1ccc(-c2ccc3nccc(Nc4ccc(N5CCN(C)CC5)cc4)c3c2)c(OC)c1` [6-(2,4-dimethoxyphenyl)-N-(4-(4-methylpiperazin-1-yl)phenyl)quinolin-4-amine], for which the figures for the Activity result at NEK2, on PRAK and on MAPKAPK2 were “NEK2”, “PRAK” and “MAPKAPK2”, respectively.

Regarding `CN1CCN(c2ccc(Nc3ccnc4ccc(-c5cccc(Cl)c5)cc34)cc2)CC1` [6-(3-chlorophenyl)-N-(4-(4-methylpiperazin-1-yl)phenyl)quinolin-4-amine], the Activity result on NEK2 is recorded as “NEK2”; at PRAK it was “PRAK”; on MAPKAPK2 it was “MAPKAPK2”.

As to `Cc1ccc(-c2ccc3nccc(Nc4ccc(N5CCN(C)CC5)cc4)c3c2)cc1C` [6-(3,4-dimethylphenyl)-N-(4-(4-methylpiperazin-1-yl)phenyl)quinolin-4-amine], the Activity result on NEK2 is “NEK2”; on PRAK, “PRAK”; on MAPKAPK2 it was “MAPKAPK2”.

`COc1ccccc1-c1ccc2nccc(Nc3ccc(N4CCN(C)CC4)cc3)c2c1` [6-(2-methoxyphenyl)-N-(4-(4-methylpiperazin-1-yl)phenyl)quinolin-4-amine]: the Activity result at NEK2 is reported as “NEK2”; at PRAK, “PRAK”; at MAPKAPK2, “MAPKAPK2”.

Regarding `N#CCCN1CCN(c2ccc(Nc3ccnc4ccc(-c5ccccc5)cc34)cc2)CC1` [3-(4-(4-(6-phenylquinolin-4-ylamino)phenyl)piperazin-1-yl)propanenitrile], the Activity result is recorded as “PRAK” at PRAK and “MAPKAPK2” at MAPKAPK2.

As to `CCCCc1ccc(-c2ccc3nccc(Nc4ccc(N5CCN(C)CC5)cc4)c3c2)cc1` [6-(4-butylphenyl)-N-(4-(4-methylpiperazin-1-yl)phenyl)quinolin-4-amine], the Activity entry is reported as “PRAK” at PRAK and “MAPKAPK2” at MAPKAPK2.

For the molecule `CN1CCN(c2ccc(Nc3ccnc4ccc(-c5c(F)cccc5F)cc34)cc2)CC1` [6-(2,6-difluorophenyl)-N-(4-(4-methylpiperazin-1-yl)phenyl)quinolin-4-amine], the Activity result is on record as “PRAK” on PRAK and “MAPKAPK2” on MAPKAPK2.

`CN1CCN(c2ccc(Nc3ccnc4ccc(-c5ccc(Cl)cc5)cc34)cc2)CC1` [6-(4-chlorophenyl)-N-(4-(4-methylpiperazin-1-yl)phenyl)quinolin-4-amine]: the Activity entry on PRAK is given as “PRAK”; at MAPKAPK2, “MAPKAPK2”.

Turning to `CCN1CCN(c2ccc(Nc3ccnc4ccc(-c5ccccc5)cc34)cc2)CC1` [N-(4-(4-ethylpiperazin-1-yl)phenyl)-6-phenylquinolin-4-amine], the values for the Activity entry on PRAK and at MAPKAPK2 were “PRAK” and “MAPKAPK2”, respectively.

For the molecule `N#CCCN1CCN(c2ccc(Nc3ccnc4ccc(-c5ccc(C#N)cc5)cc34)cc2)CC1` [4-(4-(4-(4-(2-cyanoethyl)piperazin-1-yl)phenylamino)quinolin-6-yl)benzonitrile], the figures for the Activity result at PRAK and at MAPKAPK2 were “PRAK” and “MAPKAPK2”, respectively.

As for `CN1CCN(c2ccc(Nc3ccnc4ccc(-c5ccc([S+](C)[O-])cc5)cc34)cc2)CC1` (stereo not drawn) [N-(4-(4-methylpiperazin-1-yl)phenyl)-6-(4-(methylsulfinyl)phenyl)quinolin-4-amine], the Activity result at PRAK is recorded as “PRAK”; on MAPKAPK2, “MAPKAPK2”.

For the molecule `CN1CCN(c2ccc(Nc3ccnc4ccc(-c5cccc(OC(F)(F)F)c5)cc34)cc2)CC1` [N-(4-(4-methylpiperazin-1-yl)phenyl)-6-(3-(trifluoromethoxy)phenyl)quinolin-4-amine], the Activity result is given as “PRAK” at PRAK and “MAPKAPK2” at MAPKAPK2.

`CN1CCN(c2ccc(Nc3ccnc4ccc(-c5ccccc5F)cc34)cc2)CC1` [6-(2-fluorophenyl)-N-(4-(4-methylpiperazin-1-yl)phenyl)quinolin-4-amine]: the Activity result on PRAK was “PRAK”; at MAPKAPK2, “MAPKAPK2”.

For `COc1ccc(C(C)C)cc1-c1ccc2nccc(Nc3ccc(N4CCN(C)CC4)cc3)c2c1` [6-(5-isopropyl-2-methoxyphenyl)-N-(4-(4-methylpiperazin-1-yl)phenyl)quinolin-4-amine], the Activity result at PRAK is reported as “PRAK”; on MAPKAPK2, “MAPKAPK2”.

For `CC(=O)c1ccc(-c2ccc3nccc(Nc4ccc(N5CCN(C)CC5)cc4)c3c2)s1` [1-(5-(4-(4-(4-methylpiperazin-1-yl)phenylamino)quinolin-6-yl)thiophen-2-yl)ethanone], the values for the Activity entry at PRAK and on MAPKAPK2 were “PRAK” and “MAPKAPK2”, respectively.

Consider `CC(C)c1cccc(-c2ccc3nccc(Nc4ccc(N5CCN(C)CC5)cc4)c3c2)c1` [6-(3-isopropylphenyl)-N-(4-(4-methylpiperazin-1-yl)phenyl)quinolin-4-amine], for which the Activity result at PRAK is given as “PRAK”; at MAPKAPK2, “MAPKAPK2”.

Turning to `OCCCN1CCN(c2ccc(Nc3ccnc4ccc(-c5ccccc5)cc34)cc2)CC1` [3-(4-(4-(6-phenylquinolin-4-ylamino)phenyl)piperazin-1-yl)propan-1-ol], the Activity entry on PRAK is recorded as “PRAK”; on MAPKAPK2, “MAPKAPK2”.

Turning to `CCCN1CCN(c2ccc(Nc3ccnc4ccc(-c5ccc(C#N)cc5)cc34)cc2)CC1` [4-(4-(4-(4-propylpiperazin-1-yl)phenylamino)quinolin-6-yl)benzonitrile], the figures for the Activity result at PRAK and on MAPKAPK2 were “PRAK” and “MAPKAPK2”, respectively.

Turning to `CN1CCN(c2ccc(Nc3ccnc4ccc(-c5ccc(CO)cc5)cc34)cc2)CC1` [(4-(4-(4-(4-methylpiperazin-1-yl)phenylamino)quinolin-6-yl)phenyl)methanol], the Activity entry was “PRAK” at PRAK and “MAPKAPK2” at MAPKAPK2.

The record behind these values is US7452887B2, “Quinoline- and isoquinoline-based compounds exhibiting ATP-utilizing enzyme inhibitory activity, and compositions, and uses thereof” (Amphora Discovery Corporation, priority 2004, dated 2008).
